One data set concerns S. thyphimurium. The data set can be described thus: Broth microdilution MIC/MBC. Format: cell-based. The settings on record: for MIC: broth microdilution, 1 × 10^5 CFU/mL, concentration inhibiting 95% bacterial growth, triplicate; for MBC: lowest concentration killing 99.9% of the bacterial load after 18 h at 37°C on MHA.
The next data set deals with K. pneumoniae ATCC 10031. The data set can be described thus: Broth microdilution MIC/MBC. The settings on record: reference strain ATCC 10031; for MIC: broth microdilution, 1 × 10^5 CFU/mL, concentration inhibiting 95% bacterial growth, triplicate; for MBC: lowest concentration killing 99.9% of the bacterial load after 18 h at 37°C on MHA. It counts as cell-based, Klebsiella pneumoniae. The protocol: (§1) Antibacterial activity of peptides was conducted against a panel of bacterial strains both Gram-positive (Staphylococcus aureus ATCC 6538, Enterococcus faecalis ATCC 29212, Listeria monocytogenes MB 677), and Gram-negative (E. coli ATCC 11229, K. pneumoniae ATCC 10031, Pseudomonas aeruginosa O1, Burkordelia cepacea LGM16656). The analysis has been extended to clinical isolates of K. pneumoniae carbapenemases producers isolated and characterized at the Microbiology Laboratory of the University Hospital “Luigi Vanvitelli,” Naples, Italy, using a BD Phoenix M50 instrument (Becton, Dickinson and Company, Franklin Lakes, NJ, USA) and listed in Table 1. The test was carried out as reported elsewhere ([Folliero et al., 2022]). The final bacterial concentration inoculated in the 96-well plate was 1 × 10^5 CFU/mL. Vancomycin (5 μg/mL) and meropenem (10 μg/mL) (Burlington, MA, USA) were used as positive control (CTRL+) against Gram-positive and Gram-negative bacteria, respectively.
(§2) The concentration of peptides inhibiting 95% bacterial growth was recorded as MIC. After setting the MIC value, 50 μL were taken from the 2MIC, 1MIC, and ½ MIC and spotted on MHA. The plates were incubated for 18 h at 37°C. The number of colony-forming units was calculated, and MBC was recorded as the lowest concentration of peptide capable of killing 99.9% of the bacterial load after 18 h of incubation.

Data set [1] has as its system HaCaT cell line (human keratinocytes cells). In words: MTT cytotoxicity on HaCaT cells. It counts as cell-based. The conditions noted are these: 100 μM, 24 h. On the procedure: Peptides cytotoxicity was evaluated on the HaCaT cell line (human keratinocytes cells) obtained from the CLS–Cell Lines Service (Eppelheim, Germany). The cell monolayer was treated with different peptide concentrations from 3 to 100 μM for 24 h. Then, methylthiazolyldiphenyl-tetrazolium bromide (MTT) (Sigma-Aldrich, St. Louis, MO, USA) assay was performed as already reported ([Ambrosino et al., 2023]). Untreated cells represented positive control (CTRL+), while cells treated with 100% DMSO represented negative control (CTRL−). Absorbance was recorded at 570 nm, and cell viability was calculated with Equation 1:
(1) %ofcellviability=absorbanceoftreatedcells/absorbanceofuntreatedcellsx100

The test system of data set [2] is Enterococcus faecalis ATCC 29212. The data set can be described thus: Broth microdilution MIC/MBC. It counts as cell-based. The settings on record: for MIC: broth microdilution, 1 × 10^5 CFU/mL, concentration inhibiting 95% bacterial growth, triplicate; for MBC: lowest concentration killing 99.9% of the bacterial load after 18 h at 37°C on MHA. The protocol:
as §1, §2

Data set [3] concerns Staphylococcus aureus ATCC 6538. The data set can be described thus: Broth microdilution MIC/MBC. Format: cell-based. The settings on record: for MIC: broth microdilution, 1 × 10^5 CFU/mL, concentration inhibiting 95% bacterial growth, triplicate; for MBC: lowest concentration killing 99.9% of the bacterial load after 18 h at 37°C on MHA. The protocol: as §1, §2
In data set [4] the test system is Burkordelia cepacea LGM16656 (B. cepacia). In words: Broth microdilution MIC/MBC. Format: cell-based. The conditions noted are these: for MIC: broth microdilution, 1 × 10^5 CFU/mL, concentration inhibiting 95% bacterial growth, triplicate. On the procedure: as §1, §2
In data set [5] the test system is Listeria monocytogenes MB 677. The data set can be described thus: Broth microdilution MIC/MBC. Format: cell-based. The settings on record: for MIC: broth microdilution, 1 × 10^5 CFU/mL, concentration inhibiting 95% bacterial growth, triplicate; for MBC: lowest concentration killing 99.9% of the bacterial load after 18 h at 37°C on MHA. The protocol:
as §1, §2

For data set [6], the system named is Pseudomonas aeruginosa O1. In words: Broth microdilution MIC/MBC. It counts as cell-based. The conditions noted are these: 1 × 10^5 CFU/mL, concentration inhibiting 95% bacterial growth, triplicate. The protocol: as §1, §2
A further data set deals with E. coli ATCC 11229. The data set can be described thus: Broth microdilution MIC/MBC. It counts as cell-based. The settings on record: for MIC: broth microdilution, 1 × 10^5 CFU/mL, concentration inhibiting 95% bacterial growth, triplicate; for MBC: lowest concentration killing 99.9% of the bacterial load after 18 h at 37°C on MHA. The protocol:
as §1, §2

The subject of data set [7] is K. pneumoniae 1746 (VIM, class B). In words: Broth microdilution MIC/MBC, clinical isolate. Format: cell-based, Klebsiella pneumoniae. The settings on record: clinical isolate 1746, VIM; for MIC: rectal swab, broth microdilution, 95% growth inhibition. The protocol:
as §1, §2

For data set [8], the system named is K. pneumoniae 1745 (KPC, class A). The data set can be described thus: Broth microdilution MIC/MBC, clinical isolate. It counts as cell-based, Klebsiella pneumoniae. The conditions noted are these: clinical isolate 1745, KPC; for MIC: ulcer, broth microdilution, 95% growth inhibition; for MBC: killing 99.9% after 18 h. On the procedure: as §1, §2
In data set [9] the test system is K. pneumoniae 1711 (KPC, class A). The data set can be described thus: Broth microdilution MIC/MBC, clinical isolate. It counts as cell-based, Klebsiella pneumoniae. The conditions noted are these: clinical isolate 1711, KPC; for MIC: rectal swab, broth microdilution, 95% growth inhibition. On the procedure: as §1, §2
The nature of data set [10]: Stability of peptides in serum. Format: in vitro ADME. The conditions noted are these: 2.0 mg/mL peptide, 37°C; for remaining at 16 h, 2 mg/mL: RP-HPLC peak area vs t0 (100%), mean of duplicates, read-out: Peptide remaining in solution after 16 h in serum. The protocol: Peptide stability in serum was performed as previously reported ([Russo et al., 2021]). Briefly, peptides were diluted in serum to a final concentration of 2.0 mg/mL and incubated at 37°C. Aliquots of each peptide taken at different times up to 16 h were analyzed by RP-HPLC on an Aeris PEPTIDE XB-C18 column (2.1 × 100 mm, 3.6 μm). Peptide concentrations in solution were determined from RP-HPLC peak areas compared to peak areas obtained at t0 (set as 100%).

Data set [11] relates to several strains of K. pneumoniae KPC-producers. The data set can be described thus: MIC/MBC summarised over the clinical isolates. The conditions noted are these: summary over strains 311, 1746, 1745, 1711. It counts as cell-based, Klebsiella pneumoniae. On the procedure:
as §1, §2

The next data set concerns K. pneumoniae. The data set can be described thus: microbe, parasite or virus in culture. Format: cell-based, Klebsiella pneumoniae. On the procedure: To assess the combined effect of peptides and antibiotics, a checkerboard test was performed. An inoculum of K. pneumoniae at 2 × 10^5 CFU/mL was used for the assay. Serial dilutions of peptides and meropenem were executed, and 10 μL of peptide and antibiotic were added into the 96-well plate, individually and/or in combination. The plate was incubated for 24 h to 37°C and the combinatorial effect was calculated as an index of fractional inhibitory concentration (FICI) with the following formula ([Giugliano et al., 2023]).
FICI=MICmeropenem in combination/MICmeropenem+MICpeptide in combination/MICpeptide
• FICI ≤ 0.5, synergy. • 0.5 < FICI ≤ 1.0, partial synergy. • […], no interaction. • FICI > 4.0, antagonism.

The subject of data set [12] is K. pneumoniae 311 (OXA-48, class D). The data set can be described thus: Broth microdilution MIC/MBC, clinical isolate. Format: cell-based, Klebsiella pneumoniae. The protocol:
as §1, §2

No end group written: not given here.

With IFGAIWKGISSLL-NH2 [Pantinin 2], the MIC in the data set with S. thyphimurium is 50 µM; against K. pneumoniae ATCC 10031, 12.5 µM; in data set [2] it was 12.5 µM; in data set [3], 12.5 µM; in [4], 50 µM; in [5] it was 6.25 µM. The MIC in data set [6] is 50 µM; with E. coli ATCC 11229, 25 µM; in data set [7] it was 25 µM; in [8], 50 µM; in data set [9], 50 µM. Moreover, the MBC in the data set on S. thyphimurium is 50 µM; with K. pneumoniae ATCC 10031, 12.5 µM; in data set [2], 12.5 µM; in [3], 12.5 µM; in data set [5], 12.5 µM; against E. coli ATCC 11229, 25 µM. The MBC in [7] (killing 99.9% after 18 h) and in [8] was 50 µM throughout. For the same molecule, the Cell viability in data set [1] is listed as 25%. Moreover, the amount remaining at 16 h, 2 mg/mL in data set [10] is around 70%.

Take GILGKLWEGFKSIV-NH2 [Pantinin 1]: in [11], the “MIC against the tested clinical K. pneumoniae strains” value is 25 µM. Further, the FICI in the data set on K. pneumoniae (pantinin 1 (3 μM) with meropenem (0.62 μg/mL)) was 0.624. Further, the MIC in the data set on S. thyphimurium came out at 50 µM; with K. pneumoniae ATCC 10031 it was 6.25 µM; in data set [2], 12.5 µM; in [3], 6.25 µM; in data set [4], 25 µM; in data set [5], 6.25 µM. Further, the MIC in data set [6] came to 50 µM; in the data set with E. coli ATCC 11229 it was 12.5 µM; in [12] (clinical isolate 311, OXA-48, rectal swab, broth microdilution, 95% growth inhibition), 25 µM; in data set [7], 25 µM; in data set [8] it was 25 µM; in [9], 25 µM. Further, the MBC with S. thyphimurium was 50 µM; against K. pneumoniae ATCC 10031, 12.5 µM; in [2], 25 µM; in data set [3] it was 6.25 µM; in data set [4] (lowest concentration killing 99.9% of the bacterial load after 18 h at 37°C on MHA), 25 µM; in [5] it was 12.5 µM. Also, the MBC was found to be 25 µM in the data set with E. coli ATCC 11229; 25 µM in data set [12] (clinical isolate 311, OXA-48, killing 99.9% after 18 h); 25 µM in data set [8]; 25 µM in data set [9] (killing 99.9% after 18 h). Further, the Cell viability entry in data set [1] is recorded as “approximately 70%”. Further, the “Stability in serum in the time interval analysed” value in data set [10] (up to 16 h, RP-HPLC peak area vs t0, duplicates) is “stable”.

With `C[C@@H](O)[C@H]1C(=O)N2C(C(=O)O)=C(S[C@@H]3CN[C@H](C(=O)N(C)C)C3)[C@H](C)[C@H]12` [meropenem], the MIC in the data set with K. pneumoniae (Klebsiella pneumoniae, checkerboard, 2 × 10^5 CFU/mL, 24 h, 37°C, read-out: MIC of meropenem alone) worked out at 5 µg/mL. Besides, in the data set on K. pneumoniae (combined with 3 μM of pantinin 1, checkerboard, 24 h, 37°C), the “MIC of meropenem in combination” value is 0.62 µg/mL.

FLSTIWNGIKSLL-NH2 [Pantinin 3]: the MIC in the data set on S. thyphimurium is 50 µM; against K. pneumoniae ATCC 10031, 25 µM; in data set [2], 25 µM; in [3] it was 12.5 µM; in data set [4] it was 50 µM; in data set [5], 25 µM. The MIC (in [6]; in the data set on E. coli ATCC 11229; in [7]) was 50 µM throughout. In data set [1], this molecule yielded a Cell viability of 10%. Also, the MBC in data set [2] is 25 µM. For the same molecule, the fraction remaining at 16 h, 2 mg/mL in [10] was around 80%.

Values taken from PMC12162962, “The inhibitory potential of three scorpion venom peptides against multidrug-resistant Klebsiella pnemoniae” (Frontiers in Microbiology, 2025).
